Key:
[1] = tested on: H. pylori; assay: Formation of carboxylic acid from aliphatic amide in H. pylori enriched liquid culture, SPME of vapor phase and GC-MS (SIM); assay type: cell-based, Helicobacter pylori; details: for formation of the respective acid in the vapor phase: amide added to medium containing H. pylori (collection cultures and clinical isolates), GC-MS
Procedure: In vitro ex vivo experimental tests were carried out in H. pylori cultures from collections and clinical isolates. […] The experimental tests were performed in vitro ex vivo in H. pylori cultures from collection and clinical isolates enriched in liquid medium (F12) under microaerophilic conditions. These compounds were administrated as diluted aqueous solutions (0.5 mL) to the liquid culture media (25 mL), 120 mL glass flasks hermetically sealed and encapsulated with a cap containing a septum. The collection of the acids that were formed after the amide administration described in 1 was carried out after acidification of the medium with acid tartaric (mimetizing the stomach's pH) and exposing to the flask's vapor phase for 5 minutes at 37° C. a solid-phase microextraction fiber (SPME) coated with carbowax/divinilbenzene (65 μm thickness). The search in vapor phase for the carboxylic acids generated by the bacterium's aliphatic amidases activity on the amides administrated was carried out by means of gas chromatography using a capillary column of intermediate polarity. The detection was performed by mass spectrometry comprising 3 scan cycles with selective ion monitoring (SIM) the m/z=74 for the propionic acid and m/z=88 for butyric acid.

[2] = Amide incubated in flask comprising only the medium, without any bacteria addition, SPME GC-MS; assay type: physicochemical; details: 0.5 mL of 20 mM solution, 60 minutes incubation at 37° C.
Procedure: These compounds were administrated as diluted aqueous solutions (0.5 mL) to the liquid culture media (25 mL), 120 mL glass flasks hermetically sealed and encapsulated with a cap containing a septum.
The collection of the acids that were formed after the amide administration described in 1 was carried out after acidification of the medium with acid tartaric (mimetizing the stomach's pH) and exposing to the flask's vapor phase for 5 minutes at 37° C. a solid-phase microextraction fiber (SPME) coated with carbowax/divinilbenzene (65 μm thickness).
The search in vapor phase for the carboxylic acids generated by the bacterium's aliphatic amidases activity on the amides administrated was carried out by means of gas chromatography using a capillary column of intermediate polarity.
The detection was performed by mass spectrometry comprising 3 scan cycles with selective ion monitoring (SIM) the m/z=74 for the propionic acid and m/z=88 for butyric acid.

Row | chromatographic peak corresponding to butyric acid [2] | chromatographic peak corresponding to propanoic acid [2] | SMILES | chromatographic area corresponding to the butyric acid ([1]; 0.5 mL of 20 mM solution, medium enriched with H. pylori, 60 minutes incubation at 37° C., vapor phase SPME GC-MS m/z=88) | formation of the respective acid in the vapor phase [1] | chromatographic area corresponding to the propanoic acid ([1]; 0.5 mL of 20 mM solution, medium enriched with H. pylori, 60 minutes incubation at 37° C., vapor phase SPME GC-MS m/z=74)
1 | did not derive any chromatographic peak | – | CCCC(N)=O [butyramide] | 6.5×10^5 | the formation of the respective acids takes place | –
2 | – | did not produce any chromatographic peak | CCC(N)=O [propionamide] | – | the formation of the respective acids takes place | 7.0×10^5
